Measured values: patent US20250360155A1, “METHOD OF TREATING SPINAL CORD INJURY AND COMPOSITION FOR USE THEREIN” (ACADEMIA SINICA, priority 2022, published 2025)

Assays:
C57BL/6J mice with SCI [1] = test: Immunofluorescence staining of spinal cord perilesional area after spinal cord contusion; type: in vivo, mouse
Protocol: (§1) Mice were anesthetized by intramuscular injection of Zoletil® (50 mg/kg; tiletamine hydrochloride and zolazepam hydrochloride) and Rompun® (12 mg/kg; xylazine hydrochloride) before the surgery. After laminectomy on the T9-T10 vertebral column, the spinal cord was exposed and contused by a 10 g rod with an impact head of 1.2 mm diameter at the height of 6.25 mm above the T10 spinal cord to allow it to drop using an Impactor model-II spinal cord contusion system (RWD6809911) to cause the contusion injury. In the sham group, surgery procedures were identical except for the spinal contusion. After the injury, the wound was quickly sutured using 4.0 silk thread (Unik Taiwan; New Taipei city, Taiwan). The bladders of mice were manually and gently massaged once a day to avoid retention of urine until the reflexive control of micturition was restored. Cefazolin (300 mg/kg) was given for consecutive three days after surgery to prevent infection. Fourteen days after the surgery, mice were sacrificed for analyses.
(§2) In one example for the treatment of J4, which can be used as an ENT1 inhibitor, male C57BL/6J mice (8-12 weeks old) were divided into three groups: the sham group, the SCI+J4 group and the SCI+vehicle group. Please refer to FIG. 1. In the J4 group, mice were pretreated with 10 mg/kg J4 twice a day for three days before the injury. Following the SCI, J4 (10 mg/kg) was administered to mice twice a day for consecutive 14 days. In vehicle group, mice were treated with 5% DMSO, instead of J4, following the same protocol of the J4-treated group. The sham group received the same treatment as the vehicle group. All mice were maintained on a 12 h light/dark schedule and given food and water ad libitum in the Laboratory Animal Center (an AAALAC accredited experimental animal facility) at National Taiwan University. Procedures involving animals were conducted according to the ARRIVE (Animal Research: Reporting In Vivo Experiments) guidelines.
(§3) In another example for the treatment of JMF 1907 (i.e. the compound of formula (III)), male C57BL/6J mice (8-12 weeks old) were divided into three groups: the JMF1907 group, the methylprednisolone (MPSS) group and the vehicle group. Wherein, JMF1907 (10 mg/kg twice daily for 14 days), methylprednisolone (30 mg/kg 10 min after crush, then at 2, 4, and 6 h after crush), or vehicle (0.5% DMSO, twice daily for 14 days) was administered to said mice.
After being anesthetized by Zoletil® (50 mg/kg) and Rompun® (12 mg/kg), mice were intracardially perfused with ice-cold normal saline. The spinal cord (T9-T11) was removed and soaked in ice-cold 4% paraformaldehyde. The vertebrae were then placed in cassettes for paraffin embedding. The samples were cut into sagittal section of 4 μm and placed in water bath at 42° C. The section was mounted onto slides and stored at room temperature until analysis. After deparaffinization, tissue retrieval was conducted in sodium citrate buffer (pH=6) at 90° C. and the spinal cord slices were then washed with phosphate-buffered saline (PBS). Sections were incubated in antibody dilution buffer (Roche, Basel, Swiss) at room temperature. The slides were immunostained by the following primary antibodies: chicken anti-neuronal nuclear protein (NeuN) (1:2000; Merck-Millipore, Dramstadt, Germany), rabbit anti-ionized calcium-binding adapter molecule-1 (Iba-1) (1:1000; Abcam, Cambridge, MA, USA), or mouse anti-glial fibrillary acidic protein (Gfap) (1:1000; cell signaling, Danvers, Massachusetts, USA) overnight at 4° C. Corresponding secondary antibodies conjugated with Alexa Fluor 488 or Rhodamine (Jackson Immuno Research Laboratories, West Grove, PA, USA) were applied for the visualization of immunolabelling. After being washed with PBST (Phosphate Buffered Saline with Tween® 20) and PBS, the slices were mounted on a mounting gel (DAPI Fluoromount G; Southern Biotech Birmingham, Alabama, USA). Images were acquired by a Zeiss AXIO Imager M1 microscope (Carl Zeiss, Gottingen, Germany). […]

C57BL/6J mice with SCI [2] = test: Nissl staining of spinal cord lesion after spinal cord contusion; type: in vivo, mouse; details: vs vehicle
Protocol: as §1
(§4) In one example for the treatment of J4, which can be used as an ENT1 inhibitor, male C57BL/6J mice (8-12 weeks old) were divided into three groups: the sham group, the SCI+J4 group and the SCI+vehicle group. Please refer to FIG. 1. In the J4 group, mice were pretreated with 10 mg/kg J4 twice a day for three days before the injury. […]

C57BL/6J mice with SCI [3] = test: Behavioral tests (Basso Mouse Scale, footprint analysis) after spinal cord contusion; type: in vivo; details: vs vehicle
Protocol: as §1, §2, §3
The motor function after SCI was evaluated from day 3 to day 14 after the surgery by locomotor open-field rating scale on the Basso Mouse Scale (BMS).^6 Scoring ranged from 0 for complete paraplegia to 9 for normal function. The footprint analysis was assessed on day 14 after the surgery. The hindlimbs of the mice were dipped in red and black dye for left and right foot, respectively. […]

C57BL/6J mice with SCI [4] = test: Western blot of spinal cord (T9-T11) after spinal cord contusion; type: in vivo, mouse; details: J4 10 mg/kg twice a day
Protocol: as §1, §2
The protein concentrations of the samples were determined by the Bio-Rad DC Protein Assay Kit (Bio-rad, Hercules, CA, USA). Protein samples (10 μg each) were diluted with loading buffer (200 mM Tris-HCl, 1.43% 2-mercaptoethanol, 0.4% bromophenol blue, and 40% glycerol) and heated at 98° C. The protein samples were then separated with 90 V for 10 minutes, followed by 130 V for 60 minutes on 12% SDS-polyacrylamide gel (for S100a10, c-caspase3 and GAPDH) or 8% SDS-polyacrylamide gel (for C3, NeuN) in running buffer (0.3% Tris base, 1.88% glycine, and 0.1% SDS). After electrophoresis, the gel was transferred onto a nitrocellulose membrane in transfer buffer (0.3% Tris base, 1.88% glycine, and 20% methanol; pH 8.3) with 300 mA for 90 minutes. Nonspecific binding to membrane was blocked by BlockPRO™ 1 Min Protein Free Blocking Buffer (Neihu, Taipei City, Taiwan) at room temperature on shaker at 25 rpm. […] Bound antibodies were detected using Chemiluminescence reagent Plus (PerkinElmer Life Sciences, MA, USA) and Bio-rad ChemiDoc™ XRS+ Systems and Image Lab™ Software to obtain images under appropriate exposure time.

C57BL/6J mice with SCI [5] = test: RT-qPCR of inflammatory cytokines in spinal cord after spinal cord contusion; type: in vivo, mouse; details: J4 10 mg/kg twice a day; perilesional area, 14 days post-injury; vs vehicle
Protocol: as §1
as §4, with “injury. Following the SCI, J4 (10 mg/kg) was administered to mice twice a day for consecutive 14 days.” for “injury.”
Mice were anesthetized by the inhalation of isoflurane. […] Total RNA isolation, quality check, cDNA synthesis and SYBR green based quantitative real-time PCR assay were performed as described previously.^7 The forward/reverse primer sequences for IL-1β, IL-6, TNF-α, and GAPDH were listed in Table 1. The relative expression of target genes normalized to that of glyceraldehyde 3-phosphate dehydrogenase (GAPDH) was calculated by the comparative Ct (ΔCt) and was expressed as 2−ΔCt. The relative quantity was determined by the formula: 2−ΔΔCt, in which ΔΔCt values were obtained by subtracting the ΔCt values of mice with SCI from the sham controls.

[6] = JMF1907 10 mg/kg twice daily for 14 days, vs vehicle
[7] = JMF1907 10 mg/kg twice daily for 14 days

Compound: OC[C@H]1O[C@@H](n2cnc3c(NCCc4c[nH]c5ccccc45)ncnc32)[C@@H](O)C1O (stereo partly drawn) [JMF1907]
- lesion of the SCI (immunofluorescence analysis, Pdgf§ expression) (C57BL/6J mice with SCI [1]; [6]): significantly reduce
- level of CD68 (marker for microglia) (C57BL/6J mice with SCI [1]; [6]): significantly reduced
- level of Gfap (marker for reactive astrocytes) (C57BL/6J mice with SCI [1]; [6]): significantly reduced
- level of Iba-1 (marker for microglia) (C57BL/6J mice with SCI [1]; [6]): significantly reduced
- lesion of the SCI (Nissl staining) (C57BL/6J mice with SCI [2]; [7]): significantly reduce
- motor function (BMS score) (C57BL/6J mice with SCI [3]; [7]): significantly improve
- stride length (C57BL/6J mice with SCI [3]; [7]): significantly improve

Compound: OC[C@H]1O[C@@H](n2cnc3c(NCc4ccc(Br)s4)ncnc32)[C@H](O)[C@@H]1O [J4, N^6-[(5-bromothien-2-yl)methyl]adenosine]
- NeuN-positive cells in the perilesional area (immunostaining) (C57BL/6J mice with SCI [1]; J4 10 mg/kg twice a day, 14 DPI, vs vehicle): more
- intensity of Iba-1-positive cells (C57BL/6J mice with SCI [1]; J4 10 mg/kg twice a day, perilesional area, 14 DPI, vs vehicle-treated group): lower
- average fluorescence intensity of Gfap (C57BL/6J mice with SCI [1]; J4 10 mg/kg twice a day, perilesional area, 14 days post-injury, vs vehicle group): remarkably decreased
- protein level of c-caspase3 (C57BL/6J mice with SCI [4]; 14 DPI, vs vehicle): decreased
- protein level of NeuN (C57BL/6J mice with SCI [4]; 14 DPI, vs vehicle group): higher
- TGF-β protein (C57BL/6J mice with SCI [4]; vs vehicle): significantly increased
- protein level of C3 (A1 astrocyte marker) (C57BL/6J mice with SCI [4]; vs vehicle): significantly decreased
- protein level of S100a10 (A2 astrocyte marker) (C57BL/6J mice with SCI [4]; vs vehicle): increased
- loss of spinal cord tissue (lesion volume, Nissl staining) (C57BL/6J mice with SCI [2]; J4 10 mg/kg twice a day, 14 days post-injury): significantly reduced
- expression of IL-6 (mRNA) (C57BL/6J mice with SCI [5]): trend of reduction
- expression of IL-10 (mRNA) (C57BL/6J mice with SCI [5]): trend of reduction
- expression of TNF-α (mRNA) (C57BL/6J mice with SCI [5]): significantly reduced
- stride length (footprint analysis) (C57BL/6J mice with SCI [3]; J4 10 mg/kg twice a day, 3 days before and 14 days after SCI, 14 DPI): improved
- BMS score (C57BL/6J mice with SCI [3]; J4 10 mg/kg twice a day, intraperitoneal, 3 days before injury and 14 days after SCI): improved
